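Exposure lasted 48 hours, with cells grown in 96-well plates and compounds tested at five concentrations. TGI: concentration producing complete growth inhibition.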
Legend:
Test in all cases: DTP human tumour cell line panel, 48 h
NCI-H23 lung = system: NCI-H23 lung
SK-MEL-2 melanoma = system: SK-MEL-2 melanoma
DMS 114 small cell lung = system: DMS 114 small cell lung
SNB-75 CNS = system: SNB-75 CNS
DLD-1 colon = system: DLD-1 colon
786-0 renal = system: 786-0 renal
LXFL 529 NSCLC = system: LXFL 529 NSCLC
XF 498 CNS = system: XF 498 CNS
MOLT-4 leukemia = system: MOLT-4 leukemia
HOP-62 NSCLC = system: HOP-62 NSCLC
SN12C renal = system: SN12C renal
NCI-H226 lung = system: NCI-H226 lung
SK-OV-3 ovarian = system: SK-OV-3 ovarian
COLO 205 colon = system: COLO 205 colon
MALME-3M melanoma = system: MALME-3M melanoma
SF-268 CNS = system: SF-268 CNS
K-562 leukemia = system: K-562 leukemia
M19-MEL melanoma = system: M19-MEL melanoma
CCRF-CEM leukemia = system: CCRF-CEM leukemia
CAKI-1 renal = system: CAKI-1 renal
M14 melanoma = system: M14 melanoma
A498 renal = system: A498 renal
NCI-H522 lung = system: NCI-H522 lung
SK-MEL-28 melanoma = system: SK-MEL-28 melanoma
SR leukemia = system: SR leukemia
UACC-62 melanoma = system: UACC-62 melanoma
HCC-2998 colon = system: HCC-2998 colon
OVCAR-4 ovarian = system: OVCAR-4 ovarian
HCT-116 colon = system: HCT-116 colon
HL-60(TB) leukemia = system: HL-60(TB) leukemia
IGROV1 ovarian = system: IGROV1 ovarian
UO-31 renal = system: UO-31 renal
RXF-631 renal = system: RXF-631 renal
SF-539 CNS = system: SF-539 CNS
RPMI-8226 leukemia = system: RPMI-8226 leukemia
DMS 273 small cell lung = system: DMS 273 small cell lung
ACHN renal = system: ACHN renal
HOP-92 NSCLC = system: HOP-92 NSCLC
HOP-18 NSCLC = system: HOP-18 NSCLC
HCT-15 colon = system: HCT-15 colon
OVCAR-5 ovarian = system: OVCAR-5 ovarian
NCI-H460 lung = system: NCI-H460 lung
KM12 colon = system: KM12 colon
OVCAR-8 ovarian = system: OVCAR-8 ovarian
RXF 393 renal = system: RXF 393 renal
SK-MEL-5 melanoma = system: SK-MEL-5 melanoma
EKVX NSCLC = system: EKVX NSCLC
SNB-19 CNS = system: SNB-19 CNS
SNB-78 CNS = system: SNB-78 CNS
TK-10 renal = system: TK-10 renal
UACC-257 melanoma = system: UACC-257 melanoma
HT29 colon = system: HT29 colon
U251 CNS = system: U251 CNS
SW-620 colon = system: SW-620 colon
KM20L2 colon = system: KM20L2 colon
A549 NSCLC = system: A549 NSCLC
SF-295 CNS = system: SF-295 CNS

Measured: TGI

Cc1ncc(CCl)c(CCl)c1O
not listed: HOP-18 NSCLC | HCT-15 colon | OVCAR-5 ovarian | NCI-H460 lung | KM12 colon | OVCAR-8 ovarian | RXF 393 renal | SK-MEL-5 melanoma | EKVX NSCLC | SNB-19 CNS | SNB-78 CNS | TK-10 renal | UACC-257 melanoma | HT29 colon | U251 CNS | SW-620 colon | KM20L2 colon | A549 NSCLC | SF-295 CNS
> 100 µM: all other assays above

Cc1ccc(C2=C(c3ccc(C)cc3)C(c3ccc(C)cc3)=C(c3ccc(C)cc3)C2=O)cc1
not listed: DMS 114 small cell lung | COLO 205 colon | CAKI-1 renal | UACC-62 melanoma | HCC-2998 colon | OVCAR-4 ovarian | HL-60(TB) leukemia | DMS 273 small cell lung | HOP-92 NSCLC
> 100 µM: all other assays above
